Legend:
[1] = test system: patients with cardiac diseases; settings: up to 8 grams/day, intravenous injection; cited from earlier work
[2] = test system: mice; settings: up to 1% of diet for 2 weeks or over 4 weeks; cited from earlier work
[3] = test system: striatal tissue after malonate injections; assay: salicylate hydroxyl radical trapping and 3-nitrotyrosine in striatum after intrastriatal malonate injection; assay type: in vivo; settings: 1% in diet for two weeks before intrastriatal malonate, FIG. 3
From the text: FIG. 3 depicts the production of 2,3 and 2,5 DHBA and 3 nitrotyrosine after intrastriatal injection of malonate in control animals fed with creatine and those fed with cyclocreatine. **p is less than 0.01 compared with uninjected side; #p is less than 0.05 compared with DHBA elevation in controls. Eight animals were used in each group.
The salicylate hydroxyl radical-trapping method was used for measuring levels of hydroxyl radicals in striatal tissue after malonate injections. Eight animals in each group were fed either a normal diet or a diet enriched with 1% creatine or 1% cyclocreatine for two weeks before intrastriatal malonate injections. Animals were injected with 200 mg/kg salicylate intraperitoneally just before the malonate injections and were killed 1 hour later. […] An aliquot of supernatant was analyzed by HPLC with the 16-electrode electrochemical detection (Beal et. al., 1990). Salicylate, 2,3 and 2,5 DHBA, tyrosine, 3-nitrotyrosine were measured electrochemically by oxidation at 840, 240, 120, 600 and 840 mV respectively with retention times of 20.5, 9.4, 6.3, 10.5, 18.2 min respectively. The data were expressed as the ratio of 2,3 and 2,5 DHBA to salicylate to normalize the DHBA concentrations for differing brain concentrations of salicylate. […] 3-Nitrotyrosine and tyrosine concentrations were measured by HPLC with electrochemical detection (Matthews 1998). […]

[4] = test system: mice, rats and chicks; settings: fed to mice; cited from earlier work
[5] = test system: creatine kinase; settings: forward reaction, in vitro and in vivo; cited from earlier work
[6] = cited from earlier work
[7] = 1% dietary cyclocreatine; cited from earlier work
[8] = test system: chicks; settings: 1% cyclocreatine in diet, newly hatched chicks, cited from earlier work

## N-phosphoryl creatine [creatine phosphate]
[1]
  adverse side effects: no adverse side effects

## NC1=NCCN1CC(=O)O [cyclocreatine, 1-carboxymethyl-2-iminoimidazolidine]
[2]
  gross adverse effects: without gross adverse effects
[3]
  nitration of proteins (3-nitrotyrosine) induced by malonate: protective effects
[3]; killed 1 hour later
  levels of salicylate derivatives 2,3 DHBA and 2,5 DHBA after malonate: protect against increases
[4]
  tolerability: well-tolerated
[5]
  phosphorylation by creatine kinase: phosphorylated efficiently
[6]; animals fed e.g. 1% dietary cyclocreatine, mM concentrations
  accumulation in different organs: accumulation of cyclocreatine in different organs in mM concentrations
[6]; rats receiving dietary 1% cyclocreatine
  uptake by muscle, heart and brain: taken up by muscle, heart and brain
[7]
  antiviral activity: observed
[8]; in the presence of antibiotics
  mortality: without significant mortality
[8]
  growth compared with control chicks: grew more slowly
